Assay results: patent US11940441B2, “Low shear microfluidic devices and methods of use and manufacturing thereof” (President and Fellows of Harvard College, priority 2013, dated 2024)

Columns and labels:
Assay type in all cases: cell-based, human
[1] = test system: differentiated airway cells; experiment: IL-13 induced asthma-like phenotype in the airway-on-a-chip
From the text: FIGS. 30A-30D show induction of asthma-like phenotype in the airway-on-a-chip for assessment of drug efficacy. […] FIG. 30B is a bar graph showing quantification of globet cell coverage based on the fluorescent images (representative images shown in FIG. 30A). FIG. 30C is a set of bar graphs showing secretion of G-CSF and GM-CSF by IL-13 stimulated cells, as compared to cells without IL-13 stimulation. FIG. 30D is a bar graph showing cilia beating frequency under indicated conditions. In FIGS. 30B-30D, the “airway” devices were also used to assess the drug efficacy of Tofacitinib, a JAK inhibitor, by treating the IL-13 stimulated cells with Tofacitinib, and measuring each phenotype as described above accordingly.
To develop asthma-like phenotype in the devices described herein, airway cells were differentiated in the devices, e.g., using the methods as described in Example 1 or 2, and then stimulated with IL-13 to induce asthma-like phenotype in the devices. IL-13 is a protein secreted by immune cells which is found in high quantities in lungs of asthmatics.
The “airway” devices were then used to assess the drug efficacy of Tofacitinib, a JAK inhibitor.

[2] = test system: neutrophil adhesion to activated endothelium; experiment: Neutrophil capture and adhesion in COPD epithelium-microvascular endothelium co-culture device after poly (I:C); conditions: budesonide 10 nM or PFI-2 500 nM; poly (I:C) 10 μg/ml for 6 h; compared with no treatment
From the text: FIGS. 28A-28C show capability of determining drug efficacy on neutrophil capture and adhesion and inflammation suppression in a small airway mimicking device according to one or more embodiments described herein. (FIG. 28A) Representative immunofluorescence images showing adhesion of recruited neutrophils under three different conditions: (left) no drug; (middle) budesonide; (right) PFI-2. Neutrophils were stained with Hoechst immediately prior to experiment to allow visualization and quantification. (FIG. 28B) Bar graph showing percentage change in neutrophil adhesion to activated endothelium as imaged in FIG. 28A. (n=3 different donors per condition; 7-8 devices per condition from 4 independent experiments; 4-5 distinct fields per chip). […] Cytokines measured include: neutrophil-attractant IL-8, GROα, and GM-CSF, monocyte-chemoattractant MCP-1, and acute inflammation associated cytokine IL-6. […]
COPD epithelium-microvascular endothelium co-culture devices were established, e.g., as described in Example 1 or 2, and then were either treated with the corticosteroid drug budesonide (10 nM) or PFI-2 (a bromodomain-containing protein 4 (BRD4) inhibitor drug; 500 nM), or left untreated. […] Neutrophils were stained with Hoechst immediately prior to experiment to allow visualization and quantification. […]
Effects of budesonide and PFI-2 on neutrophil adhesion were quantified.

[3] = test system: COPD epithelium-microvascular endothelium co-culture; experiment: Inflammatory cytokine secretion from the microvascular channel of COPD co-culture devices (Multiplex Cytokine Detection System); conditions: budesonide 10 nM or PFI-2 500 nM, poly (I:C) 10 μg/ml 6 h
From the text: FIGS. 28A-28C show capability of determining drug efficacy on neutrophil capture and adhesion and inflammation suppression in a small airway mimicking device according to one or more embodiments described herein. (FIG. 28A) Representative immunofluorescence images showing adhesion of recruited neutrophils under three different conditions: (left) no drug; (middle) budesonide; (right) PFI-2. Neutrophils were stained with Hoechst immediately prior to experiment to allow visualization and quantification. (FIG. 28B) Bar graph showing percentage change in neutrophil adhesion to activated endothelium as imaged in FIG. 28A. (n=3 different donors per condition; 7-8 devices per condition from 4 independent experiments; 4-5 distinct fields per chip). (FIG. 28C) A set of bar graphs showing levels of different cytokine secretion modulated by the indicated drug or under no treatment. Cytokines measured include: neutrophil-attractant IL-8, GROα, and GM-CSF, monocyte-chemoattractant MCP-1, and acute inflammation associated cytokine IL-6. (n=3 donors per condition).
COPD epithelium-microvascular endothelium co-culture devices were established, e.g., as described in Example 1 or 2, and then were either treated with the corticosteroid drug budesonide (10 nM) or PFI-2 (a bromodomain-containing protein 4 (BRD4) inhibitor drug; 500 nM), or left untreated. The COPD epithelium was then stimulated with poly (I:C) 10 μg/ml via the “airway lumen” channel for 6 h and then examined for adhesion of recruited neutrophils. Neutrophils were stained with Hoechst immediately prior to experiment to allow visualization and quantification. Representative immunofluorescence images of the three conditions are illustrated in FIG. 28A.
To compare the ability of budesonide and PFI-2 in suppressing inflammatory cytokine secretion, secreted cytokines from the “microvascular” channel of the co-culture devices were also analyzed by Multiplex Cytokine Detection System prior to neutrophil recruitment assay.

[4] = test system: COPD and healthy differentiated epithelial cells; experiment: Cytokine response of differentiated COPD and healthy epithelia to TLR stimulation in the device; conditions: for IL8 secretion: LPS stimulation; for M-CSF secretion: poly(I:C) stimulation
From the text: FIGS. 26A-26E are data graphs showing COPD disease phenotype can be established in the device according to one or more embodiments described herein. […] FIG. 26B compares IL-8 secretion between COPD and healthy epithelia after LPS (lipopolysaccharides) stimulation. FIG. 26C compares M-CSF secretion between COPD and healthy epithelia after […] (polyinosinic:polycytidylic acid) stimulation.
It was next sought to determine cytokine production in response to TLR stimulation. Cytokines are molecules that are involved in inflammation and their generation can be modulated by TLR activation. After the well-differentiated (i.e. mucociliary) epithelium (normal and COPD-derived) was stimulated with lipopolysaccharides (LPS), a qPCR was performed on the cells to compare inflammatory response between COPD and healthy epithelia in the devices described herein. LPS is a bacterial derived molecule that stimulates TLR4. […] This is in line with clinical reports and other ex vivo observations that COPD patients are hyper-reactive inflammation-wise and produce more pro-inflammatory mediators. […] M-CSF is a cytokine that promotes survival and differentiations of a subset of immune cells, e.g., macrophages, in our bodies. This agrees with general observations that in the lungs of COPD patients there is generally an increased number of macrophages as compared to the number of macrophages in healthy individuals.

[5] = test system: pulmonary microvascular endothelial cells; experiment: Cell adhesion molecule gene expression in endothelial cells after apical poly (I:C) challenge of co-cultured epithelium; conditions: apical poly (I:C) 10 μg/ml for 6 h, compared to cells without challenge
From the text: FIGS. 27A-27C show establishment of a three-cell type microfluidic co-culture system comprising ciliated epithelium, endothelium and circulating leukocytes. (FIG. 27A) Left panel: a 3D cross-sectional diagram of one embodiment of the devices described herein used to re-create post-capillary venules (major sites of leukocyte recruitment and adhesion in vivo). Middle panel: a schematic diagram showing a 3-cell type co-culture of epithelium, endothelium and neutrophils (all primary cells). Right panel: vertical immunofluorescence cross-section of ciliated epithelium and endothelium bilayer on-device. Ciliated cells were labeled for β-tubulin IV and endothelial cells were stained with anti-CD31/PECAM-1 antibody. Nuclei were counterstained with DAPI. Scale bar, 20 μm. […] Following initial attachment the neutrophil crawled over apical surface of activated endothelium and then firmly adhered (times indicated in seconds). Neutrophils and endothelial cells had been live stained with CellTracker Red and Calcein AM, respectively. (FIG. 27C) Bar graphs showing E-selectin and VCAM1 mRNA levels in endothelia cells upon treatment of differentiated epithelial cells with or without poly (I:C). (3 devices per condition were used) […]

[6] = test system: differentiated airway epithelial cells; experiment: Infection response of differentiated airway epithelial cells to TLR-3 ligand poly I:C in the device
Experimental: FIGS. 11A-11D illustrate an exemplary method of evaluating an infection response of differentiated small airway epithelial cells and optionally immune cells in a device in accordance with an embodiment, and experimental data resulting therefrom. FIG. 11A is a schematic diagram illustrating an example method to evaluate an infection response in the device. Primary small airway epithelial cells were seeded on the membrane in the mesochannel (an “airway lumen” channel) for differentiation into ciliated and/or mucus-secreting cells following the differentiation method as described in FIG. 5A. Upon differentiation of the airway epithelial cells, another surface of the membrane (facing the microchannel, the “blood vessel” channel) could be seeded with or without endothelial cells. The differentiated cells in the mesochannel were then challenged with a toll-like receptor 3 (TLR-3) ligand poly I:C to induce inflammation. A fluid comprising immune cells (e.g., human monocytes) was introduced into the “blood vessel” channel, either with a static fluid or a flowing fluid, to determine effects of TLR-3-induced inflammation on cytokine/chemokine profiles of the differentiated cells and/or recruitment of immune cells (e.g., monocytes and/or neutrophils). […] FIG. 11C is a set of data showing quantification of monocytes attached to the TLR-3 activated differentiated epithelial cells in the device and the associated fluorescent images. FIG. 11D is a graph showing gene expression of differentiated epithelial cells after treatment with or without a TLR-3 ligand poly I:C.
By way of example only, FIGS. 11A-11D illustrate the capability of using one embodiment of the device described herein to model a bacterial/viral infection. […] Cytokines or chemokines secreted into the fluid flowing in the mesochannel and/or microchannel can be measured by collecting from the outlet an aliquot of the fluid exiting the mesochannel and/or microchannel, which is then subjected to cytokine/chemokine expression analyses.

[7] = IL-13 stimulation compared to cells without IL-13 stimulation
[8] = drug treatment of IL-13 stimulated cultures
[9] = healthy donor and COPD epithelial cells, poly (I:C) stimulation

IL-13: a protein secreted by immune cells which is found in high quantities in lungs of asthmatics
cilia beating frequency [1, 7]: lower cilia beating frequency | number of goblet cells [1, 7]: higher number of goblet cells | secretion of G-CSF [1, 7]: higher secretion | secretion of GM-CSF [1, 7]: higher secretion

C[C@@H]1CCN(C(=O)CC#N)C[C@@H]1N(C)c1ncnc2[nH]ccc12 [Tofacitinib]
G-CSF secretion [1, 8]: decrease GM-CSF and G-CSF secretion | GM-CSF secretion [1, 8]: decrease GM-CSF and G-CSF secretion | cilia beating frequency [1, 8]: increase cilia beating frequency | number of goblet cells [1, 8]: decrease the number of goblet cells

Cl.O=C([C@@H](Cc1cccc(C(F)(F)F)c1)NS(=O)(=O)c1cc(F)c2c(c1)CCNC2)N1CCCC1 [PFI-2]
neutrophil recruitment / adhesion to activated endothelium [2]: significantly lowered | secretion of GM-CSF [3]: significantly lowered | secretion of GROα [3]: significantly lowered | secretion of IL-6 [3]: significantly lowered | secretion of IL-8 [3]: significantly lowered | secretion of MCP-1 [3]: significantly lowered

lipopolysaccharides [LPS]
IL8 secretion ([4]; COPD epithelial cells): selectively induced | IL8 secretion ([4]; healthy epithelial cells): without increasing

polyinosinic:polycytidylic acid [poly (I:C)]
M-CSF secretion ([4]; COPD epithelial cells): selectively up-regulated | expression of IP-10 [4, 9]: induced in both healthy donor and COPD epithelial cells | expression of RANTES [4, 9]: induced in both healthy donor and COPD epithelial cells | M-CSF secretion ([4]; healthy epithelial cells): no significant change | E-selectin gene expression in endothelial cells [5]: significant up-regulation | VCAM-1 transcript levels in endothelial cells [5]: higher, but not statistically significant | release of chemokines (monocyte and neutrophil chemoattractants) ([6]; TLR-3 activation of differentiated airway epithelial cells): stimulates release of chemokines | monocyte adhesion to differentiated epithelial cells ([6]; TLR-3 stimulation): enhances monocyte adhesion | epithelial cells' gene expression of IP-10 ([6]; differentiated epithelial cells with or without poly I:C): significantly increases
